Values of other authors as cited in patent US20040005368A1, “Novel approach to weight loss comprising a modified protein composition that regulates blood sugar in conjunction with compositions that increase oxygen uptake and suppress appetite” (priority 2002, published 2004).

Conditions: group of animals

| Structure (SMILES) | loss in body fat [%] | loss in body weight |
| --- | --- | --- |
| CN[C@@H](C)[C@H](O)c1ccccc1 [ephedrine] | 42 | 14% |
| Cn1c(=O)c2c(ncn2C)n(C)c1=O [caffeine] |  | no significant loss in body weight |
